Test results published in ChEMBL document CHEMBL1201862, “PubChem BioAssay data set” (2004).
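How tested: cells in 96-well plates exposed to compound for 48 hours at five concentrations. GI50 marks 50% less growth.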 The source made the active and inactive calls. Rule as the data show it: active = GI50 up to about 1.1 µM and inactive = higher.

Experiments:
Experiment in all cases: growth of human tumour cells (NCI), 48 h
[1] = system: KM-20L2
[2] = system: SNB-19
[3] = system: KM12
[4] = system: A549
[5] = system: HCT-116
[6] = system: UACC-257
[7] = system: RXF 393
[8] = system: HCC 2998
[9] = system: ACHN
[10] = system: 786-0
[11] = system: HT-29
[12] = system: OVCAR-5
[13] = system: OVCAR-3
[14] = system: COLO 205
[15] = system: SK-MEL-2
[16] = system: M19-MEL
[17] = system: SW-620
[18] = system: HOP-92
[19] = system: DMS-114
[20] = system: DMS-273
[21] = system: NCI-H226
[22] = system: NCI-H23
[23] = system: U-251
[24] = system: OVCAR-8
[25] = system: LXFL 529
[26] = system: UO-31
[27] = system: SF-539
[28] = system: SNB-78
[29] = system: SK-MEL-5
[30] = system: SF-268
[31] = system: TK-10
[32] = system: HCT-15
[33] = system: EKVX
[34] = system: Malme-3M
[35] = system: SF-295
[36] = system: SNB-75
[37] = system: SN12C
[38] = system: SK-OV-3
[39] = system: SK-MEL-28
[40] = system: UACC-62
[41] = system: IGROV-1
[42] = system: DU-145
[43] = system: A498
[44] = system: K562
[45] = system: MDA-N
[46] = system: MOLT-4
[47] = system: MDA-MB-435
[48] = system: CCRF-CEM
[49] = system: NCI/ADR-RES
[50] = system: OVCAR-4
[51] = system: MDA-MB-231
[52] = system: NCI-H460
[53] = system: LOX IMVI
[54] = system: NCI-H522
[55] = system: Hs-578T
[56] = system: HOP-62
[57] = system: RPMI-8226
[58] = system: MCF7
[59] = system: M14
[60] = system: SR
[61] = system: CAKI-1
[62] = system: BT-549
[63] = system: HL-60
[64] = system: T47D
[65] = system: PC-3

Structure (SMILES): COc1ccc(-c2cc(Cc3cccs3)c(=O)[nH]n2)cc1
- GI50 [1]: 85.5 µM (inactive)
- GI50 [2]: > 100 µM (inactive)
- GI50 [3]: > 100 µM (inactive)
- GI50 [4]: 57 µM (inactive)
- GI50 [5]: > 100 µM (inactive)
- GI50 [6]: 42.3 µM (inactive)
- GI50 [7]: 83.8 µM (inactive)
- GI50 [8]: > 100 µM (inactive)
- GI50 [9]: 32.7 µM (inactive)
- GI50 [10]: > 100 µM (inactive)
- GI50 [11]: 96.2 µM (inactive)
- GI50 [12]: > 100 µM (inactive)
- GI50 [13]: 29.6 µM (inactive)
- GI50 [14]: > 100 µM (inactive)
- GI50 [15]: > 100 µM (inactive)
- GI50 [16]: 40.3 µM (inactive)
- GI50 [17]: > 100 µM (inactive)
- GI50 [18]: 49.9 µM (inactive)
- GI50 [19]: 74.6 µM (inactive)
- GI50 [20]: > 100 µM (inactive)
- GI50 [21]: > 100 µM (inactive)
- GI50 [22]: 56.8 µM (inactive)
- GI50 [23]: > 100 µM (inactive)
- GI50 [24]: > 100 µM (inactive)
- GI50 [25]: 53.8 µM (inactive)
- GI50 [26]: 82 µM (inactive)
- GI50 [27]: > 100 µM (inactive)
- GI50 [28]: > 100 µM (inactive)
- GI50 [29]: 19 µM (inactive)
- GI50 [30]: > 100 µM (inactive)
- GI50 [31]: > 100 µM (inactive)
- GI50 [32]: 49 µM
- GI50 [33]: > 100 µM (inactive)
- GI50 [34]: > 100 µM (inactive)
- GI50 [35]: > 100 µM (inactive)
- GI50 [36]: 29.5 µM (inactive)
- GI50 [37]: > 100 µM (inactive)
- GI50 [38]: > 100 µM (inactive)
- GI50 [39]: 95.1 µM (inactive)
- GI50 [40]: 56.9 µM (inactive)
- GI50 [41]: > 100 µM (inactive)

Structure (SMILES): CC[P+](C#Cc1ccccc1)(c1ccccc1)c1ccccc1
- GI50 [2]: 5.92 µM (inactive)
- GI50 [3]: 1.22 µM (inactive)
- GI50 [42]: 3.46 µM (inactive)
- GI50 [43]: 8.17 µM (inactive)
- GI50 [4]: 3.08 µM (inactive)
- GI50 [5]: 1.77 µM (inactive)
- GI50 [6]: 1.21 µM (inactive)
- GI50 [7]: 0.966 µM (active)
- GI50 [8]: 1.97 µM (inactive)
- GI50 [44]: 0.224 µM (active)
- GI50 [9]: 3.94 µM (inactive)
- GI50 [45]: 1.56 µM (inactive)
- GI50 [10]: 1.57 µM (inactive)
- GI50 [11]: 2.43 µM (inactive)
- GI50 [12]: 4.06 µM (inactive)
- GI50 [46]: 1.36 µM (inactive)
- GI50 [47]: 1.24 µM (inactive)
- GI50 [48]: 0.358 µM (active)
- GI50 [13]: 1.31 µM (inactive)
- GI50 [14]: 1.06 µM (active)
- GI50 [15]: 1.98 µM (inactive)
- GI50 [17]: 1.17 µM (inactive)
- GI50 [18]: 1.92 µM (inactive)
- GI50 [21]: 2.82 µM (inactive)
- GI50 [22]: 2.17 µM (inactive)
- GI50 [49]: 38.9 µM (inactive)
- GI50 [23]: 0.562 µM (active)
- GI50 [50]: 3.15 µM (inactive)
- GI50 [51]: 3.18 µM (inactive)
- GI50 [52]: 3 µM (inactive)
- GI50 [24]: 1.76 µM (inactive)
- GI50 [53]: 1.82 µM (inactive)
- GI50 [26]: 6.93 µM (inactive)
- GI50 [27]: 1.79 µM (inactive)
- GI50 [54]: 1.36 µM (inactive)
- GI50 [55]: 2.86 µM (inactive)
- GI50 [29]: 1.22 µM (inactive)
- GI50 [30]: 3.03 µM (inactive)
- GI50 [56]: 2.44 µM (inactive)
- GI50 [57]: 0.242 µM (active)
- GI50 [31]: 1.58 µM (inactive)
- GI50 [58]: 3.09 µM (inactive)
- GI50 [32]: 3.19 µM
- GI50 [59]: 1.66 µM (inactive)
- GI50 [33]: 2.26 µM (inactive)
- GI50 [34]: 1.59 µM (inactive)
- GI50 [35]: 7.03 µM (inactive)
- GI50 [36]: 1.78 µM (inactive)
- GI50 [37]: 1.75 µM (inactive)
- GI50 [60]: 2.33 µM (inactive)
- GI50 [38]: 2.93 µM (inactive)
- GI50 [39]: 1.95 µM (inactive)
- GI50 [40]: 1.63 µM (inactive)
- GI50 [61]: 9.66 µM (inactive)
- GI50 [41]: 3.1 µM (inactive)
- GI50 [62]: 1.31 µM (inactive)
- GI50 [63]: 0.324 µM (active)
- GI50 [64]: 2.18 µM (inactive)
- GI50 [65]: 2.3 µM (inactive)

Structure (SMILES): CCOC(=O)NC(Nc1c(F)c(F)c(F)c(F)c1F)(C(F)(F)F)C(F)(F)F
- GI50 [2]: > 100 µM (inactive)
- GI50 [3]: > 100 µM (inactive)
- GI50 [42]: > 100 µM (inactive)
- GI50 [43]: > 100 µM (inactive)
- GI50 [4]: > 100 µM (inactive)
- GI50 [5]: > 100 µM (inactive)
- GI50 [6]: > 100 µM (inactive)
- GI50 [7]: > 100 µM (inactive)
- GI50 [8]: > 100 µM (inactive)
- GI50 [44]: > 100 µM (inactive)
- GI50 [9]: > 100 µM (inactive)
- GI50 [45]: > 100 µM (inactive)
- GI50 [10]: > 100 µM (inactive)
- GI50 [12]: > 100 µM (inactive)
- GI50 [46]: > 100 µM (inactive)
- GI50 [47]: > 100 µM (inactive)
- GI50 [48]: > 100 µM (inactive)
- GI50 [13]: > 100 µM (inactive)
- GI50 [14]: > 100 µM (inactive)
- GI50 [15]: > 100 µM (inactive)
- GI50 [17]: > 100 µM (inactive)
- GI50 [18]: > 100 µM (inactive)
- GI50 [21]: > 100 µM (inactive)
- GI50 [22]: > 100 µM (inactive)
- GI50 [49]: > 100 µM (inactive)
- GI50 [23]: > 100 µM (inactive)
- GI50 [51]: > 100 µM (inactive)
- GI50 [52]: > 100 µM (inactive)
- GI50 [24]: > 100 µM (inactive)
- GI50 [53]: > 100 µM (inactive)
- GI50 [26]: > 100 µM (inactive)
- GI50 [27]: > 100 µM (inactive)
- GI50 [54]: > 100 µM (inactive)
- GI50 [55]: > 100 µM (inactive)
- GI50 [29]: > 100 µM (inactive)
- GI50 [30]: > 100 µM (inactive)
- GI50 [56]: > 100 µM (inactive)
- GI50 [57]: > 100 µM (inactive)
- GI50 [31]: > 100 µM (inactive)
- GI50 [58]: > 100 µM (inactive)
- GI50 [32]: > 100 µM
- GI50 [59]: > 100 µM (inactive)
- GI50 [33]: > 100 µM (inactive)
- GI50 [34]: > 100 µM (inactive)
- GI50 [35]: > 100 µM (inactive)
- GI50 [36]: > 100 µM (inactive)
- GI50 [37]: > 100 µM (inactive)
- GI50 [60]: > 100 µM (inactive)
- GI50 [38]: > 100 µM (inactive)
- GI50 [39]: > 100 µM (inactive)
- GI50 [40]: > 100 µM (inactive)
- GI50 [61]: > 100 µM (inactive)
- GI50 [41]: > 100 µM (inactive)
- GI50 [62]: > 100 µM (inactive)
- GI50 [63]: > 100 µM (inactive)
- GI50 [64]: > 100 µM (inactive)
- GI50 [65]: > 100 µM (inactive)
